Assay results from ChEMBL document CHEMBL1255210, “Discovery of pyrrolopyridazines as novel DGAT1 inhibitors” (Bioorg Med Chem Lett, 2010).

How the values were obtained:
[1] = target: T1, Diacylglycerol O-acyltransferase 1 (Homo sapiens, UniProt O75907); assay: Inhibition of human liver flag-tagged DGAT1 expressed in baculovirus infected insect cells after 2 hrs
T1 sequence (O75907 whole entry): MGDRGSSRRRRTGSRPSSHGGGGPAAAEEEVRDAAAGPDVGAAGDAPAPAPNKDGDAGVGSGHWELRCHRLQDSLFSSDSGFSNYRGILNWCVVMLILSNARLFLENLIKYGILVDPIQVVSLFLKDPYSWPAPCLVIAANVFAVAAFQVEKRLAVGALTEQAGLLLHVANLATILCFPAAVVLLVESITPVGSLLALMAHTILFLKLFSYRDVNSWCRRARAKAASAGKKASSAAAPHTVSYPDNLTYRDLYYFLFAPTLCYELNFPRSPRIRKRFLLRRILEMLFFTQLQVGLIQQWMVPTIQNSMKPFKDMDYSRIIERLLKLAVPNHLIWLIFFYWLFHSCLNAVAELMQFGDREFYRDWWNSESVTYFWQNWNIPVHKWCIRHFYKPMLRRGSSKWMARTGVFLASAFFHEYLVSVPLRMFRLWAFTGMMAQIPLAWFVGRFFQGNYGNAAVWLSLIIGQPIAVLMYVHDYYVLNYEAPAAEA

[2] = target: T2, Sterol O-acyltransferase 1 (Homo sapiens, UniProt P35610); assay: Inhibition of human full-length flag-tagged ACAT1 expressed in baculovirus infected insect cells after 10 mins
T2 sequence (P35610 whole entry): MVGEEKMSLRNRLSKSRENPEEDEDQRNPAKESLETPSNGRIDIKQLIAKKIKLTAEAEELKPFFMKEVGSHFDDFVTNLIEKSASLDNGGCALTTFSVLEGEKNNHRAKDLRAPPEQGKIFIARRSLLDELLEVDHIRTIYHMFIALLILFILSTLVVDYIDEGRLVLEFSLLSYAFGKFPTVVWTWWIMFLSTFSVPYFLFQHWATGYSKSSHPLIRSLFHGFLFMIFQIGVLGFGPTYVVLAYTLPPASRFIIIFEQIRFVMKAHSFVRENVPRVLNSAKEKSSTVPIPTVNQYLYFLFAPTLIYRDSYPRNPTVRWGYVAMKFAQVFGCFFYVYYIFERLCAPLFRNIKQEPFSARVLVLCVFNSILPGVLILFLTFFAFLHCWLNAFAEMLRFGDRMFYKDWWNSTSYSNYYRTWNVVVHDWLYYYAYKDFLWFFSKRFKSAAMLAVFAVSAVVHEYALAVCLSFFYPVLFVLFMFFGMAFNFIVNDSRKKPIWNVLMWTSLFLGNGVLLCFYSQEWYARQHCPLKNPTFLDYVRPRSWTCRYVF

[3] = target: T1, Diacylglycerol O-acyltransferase 1; assay: Inhibition of DGAT1 in human Caco-2 cells after 30 mins; format: cell-based

## CCCc1c(C(=O)OCC)c(C(=O)OCC)c2c(-c3ccccc3)cc(N3C[C@@H](C)O[C@@H](C)C3)nn12
[1]
  IC50: > 3000 nM

## CCCCCc1noc(-c2c(C(=O)OCC)c3c(-c4ccccc4)cc(N4CCOCC4)nn3c2CCC)n1
[1]
  IC50: 110 nM
[2]
  IC50: < 1000 nM

## CCCc1c(-c2nc(-c3ccccc3)no2)c(C(=O)OCC)c2c(-c3ccccc3)cc(N3CCOCC3)nn12
[1]
  IC50: 180 nM
[2]
  IC50: 1590 nM
[3]
  IC50: 200 nM

## CCOC(=O)c1c(C(=O)OCC)c2c(-c3ccccc3)cc(N3CCOCC3)nn2c1C
[1]
  IC50: 520 nM
[2]
  IC50: 2590 nM

## CCCc1c(C(=O)OCC)c(C(=O)OCC)c2c(C3CCCC3)cc(N3CCOCC3)nn12
[1]
  IC50: > 3000 nM

## CCOC(=O)c1c(C(=O)OCC)c2c(-c3ccccc3)cc(N3CCOCC3)nn2c1CCCN(C)C
[1]
  IC50: > 1000 nM

## CCOC(=O)c1c(C(=O)OCC)c2c(-c3ccccc3)cc(N3CCOCC3)nn2c1CC
[1]
  IC50: 240 nM
[2]
  IC50: 2170 nM

## CCCc1c(C(=O)OCC)c(C(=O)OCC)c2c(C3CCC3)cc(N3CCOCC3)nn12
[1]
  IC50: > 3000 nM

## CCOC(=O)c1c(C(=O)OCC)c2c(-c3ccccc3)cc(N3CCOCC3)nn2c1CCCOC
[1]
  IC50: 270 nM
[2]
  IC50: 2560 nM

## CCOC(=O)c1c(C(=O)OCC)c2c(-c3ccccc3)cc(N3CCOCC3)nn2c1-c1ccc(O)cc1
[1]
  IC50: 570 nM
[2]
  IC50: 1290 nM

## CCCc1c(C(=O)OCC)c(C(=O)OCC)c2c(C3CCCCC3)cc(N3CCOCC3)nn12
[1]
  IC50: > 3000 nM

## CCOC(=O)c1c(C(=O)OCC)c2c(-c3ccccc3)cc(N3CCOCC3)nn2c1CCCO
[1]
  IC50: > 1000 nM

## CCCc1c(-c2nc(CCO)no2)c(C(=O)OCC)c2c(-c3ccccc3)cc(N3CCOCC3)nn12
[1]
  IC50: 180 nM
[2]
  IC50: 1050 nM
[3]
  IC50: 260 nM

## CCCc1c(C(=O)OCC)c(C(=O)OCC)c2c(-c3ccccc3)cc(N3CCCC3)nn12
[1]
  IC50: 120 nM
[2]
  IC50: 1300 nM

## C=CCc1c(C(=O)OCC)c(C(=O)OCC)c2c(-c3ccccc3)cc(N3CCOCC3)nn12
[1]
  IC50: 75 nM
[2]
  IC50: 1400 nM

## CCCc1c(-c2nc(C(C)C)no2)c(C(=O)OCC)c2c(-c3ccccc3)cc(N3CCOCC3)nn12
[1]
  IC50: 57 nM
[2]
  IC50: < 1000 nM
[3]
  IC50: 51 nM

## CCCc1noc(-c2c(C(=O)OCC)c3c(-c4ccccc4)cc(N4CCOCC4)nn3c2CCC)n1
[1]
  IC50: 65 nM
[2]
  IC50: 260 nM

## CCOC(=O)c1c(C(=O)OCC)c2c(-c3ccccc3)cc(N3CCOCC3)nn2c1-c1ccc(OCc2ccccc2)cc1
[1]
  IC50: 60 nM
[2]
  IC50: < 100 nM

## CCCc1c(C(=O)OCC)c(C(=O)OCC)c2c(-c3ccccc3)cc(N3CCC3)nn12
[1]
  IC50: 1360 nM
[2]
  IC50: 1490 nM

## CCCc1c(C(=O)OCC)c(C(=O)OCC)c2c(-c3ccccc3)cc(N3CCOCC3)nn12
[1]
  IC50: 120 nM
[2]
  IC50: 1300 nM

## CCCCc1noc(-c2c(C(=O)OCC)c3c(-c4ccccc4)cc(N4CCOCC4)nn3c2CCC)n1
[1]
  IC50: 73 nM
[2]
  IC50: < 1000 nM
[3]
  IC50: 69 nM

## CCCc1c(C(=O)OCC)c(C(=O)OCC)c2c(C(C)(C)C)cc(N3CCOCC3)nn12
[1]
  IC50: > 3000 nM

## CCOC(=O)c1c(C(=O)OCC)c2c(-c3ccccc3)cc(N3CCOCC3)nn2c1-c1ccc(-c2ccccc2)cc1
[1]
  IC50: 250 nM
[2]
  IC50: < 300 nM

## CCCc1c(-c2nc(CC)no2)c(C(=O)OCC)c2c(-c3ccccc3)cc(N3CCOCC3)nn12
[1]
  IC50: 110 nM
[2]
  IC50: < 1000 nM

## CCCc1c(C(=O)OCC)c(C(=O)OCC)c2c(-c3ccccc3F)cc(N3CCOCC3)nn12
[1]
  IC50: 570 nM
[2]
  IC50: 1490 nM

## CCOC(=O)c1c(C(=O)OCC)c2c(-c3ccccc3)cc(N3CCOCC3)nn2c1C1CC1
[1]
  IC50: 620 nM
[2]
  IC50: 3250 nM

## CCCCc1c(C(=O)OCC)c(C(=O)OCC)c2c(-c3ccccc3)cc(N3CCOCC3)nn12
[1]
  IC50: 160 nM
[2]
  IC50: < 300 nM

## CCOC(=O)c1c(C(=O)OCC)c2c(-c3ccccc3)cc(N3CCOCC3)nn2c1COC
[1]
  IC50: 240 nM
[2]
  IC50: 8750 nM

## CCCc1cc(N2CCOCC2)nn2c(CCC)c(C(=O)OCC)c(C(=O)OCC)c12
[1]
  IC50: > 3000 nM

## CCOC(=O)c1c(C(=O)OCC)c2c(-c3ccccc3)cc(N3CCOCC3)nn2c1-c1ccc(N)cc1
[1]
  IC50: 630 nM
[2]
  IC50: 1050 nM

## CCOC(=O)c1cn2nc(N3CCOCC3)cc(-c3ccccc3)c2c1C(=O)OCC
[1]
  IC50: > 3000 nM
